Data as given in PubChem BioAssay AID1963861 (Molecular Pharmacology Branch, DTP, NCI, 2024).
Values joined by “and” are separate entries in the source; they are usually repeats but may differ in a detail not shown here. Identical values can stand only once.

Test system: 885724-159-R-J1-PDC KRAS PDC multicell spheroid viability
Assay: Anticancer human tumor 885724-159-R-J1-PDC patient-derived pancreatic adenocarcinoma cell line growth inhibition [KRAS2]
Conditions: for viability, T/C: stronger effect = lower value
How it was run: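 Combination screen of spheroid viability in tumor-cell co-cultures with endothelial (HUVEC) and mesenchymal stem cell stroma. Each agent was tested in half-log dilutions, topping at clinical Cmax or at 10 microM without a known Cmax.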

[1] = curve of first compound, second compound 0.1 µM
[2] = curve of first compound, second compound 0.316 µM
[3] = curve of first compound, second compound 1 µM
[4] = curve of first compound, second compound 3.16 µM
[5] = curve of first compound, second compound 10 µM
[6] = second compound 0.1 µM, first compound 0.0316 µM
[7] = second compound 0.1 µM, first compound 0.1 µM
[8] = second compound 0.1 µM, first compound 0.316 µM
[9] = second compound 0.1 µM, first compound 1 µM
[10] = second compound 0.1 µM, first compound 3.16 µM
[11] = second compound 0.1 µM, first compound 10 µM
[12] = second compound 0.316 µM, first compound 0.0316 µM
[13] = second compound 0.316 µM, first compound 0.1 µM
[14] = second compound 0.316 µM, first compound 0.316 µM
[15] = second compound 0.316 µM, first compound 1 µM
[16] = second compound 0.316 µM, first compound 3.16 µM
[17] = second compound 0.316 µM, first compound 10 µM
[18] = second compound 1 µM, first compound 0.0316 µM
[19] = second compound 1 µM, first compound 0.1 µM
[20] = second compound 1 µM, first compound 0.316 µM
[21] = second compound 1 µM, first compound 1 µM
[22] = second compound 1 µM, first compound 3.16 µM
[23] = second compound 1 µM, first compound 10 µM
[24] = second compound 3.16 µM, first compound 0.0316 µM
[25] = second compound 3.16 µM, first compound 0.1 µM
[26] = second compound 3.16 µM, first compound 0.316 µM
[27] = second compound 3.16 µM, first compound 1 µM
[28] = second compound 3.16 µM, first compound 3.16 µM
[29] = second compound 3.16 µM, first compound 10 µM
[30] = second compound 10 µM, first compound 0.0316 µM
[31] = second compound 10 µM, first compound 0.1 µM
[32] = second compound 10 µM, first compound 0.316 µM
[33] = second compound 10 µM, first compound 1 µM
[34] = second compound 10 µM, first compound 3.16 µM
[35] = second compound 0.1 µM, first compound 0.01 µM
[36] = second compound 0.316 µM, first compound 0.01 µM
[37] = second compound 1 µM, first compound 0.01 µM
[38] = second compound 3.16 µM, first compound 0.01 µM
[39] = curve of first compound, second compound 0.0316 µM
[40] = second compound 0.0316 µM, first compound 0.0316 µM
[41] = second compound 0.0316 µM, first compound 0.1 µM
[42] = second compound 0.0316 µM, first compound 0.316 µM
[43] = second compound 0.0316 µM, first compound 1 µM
[44] = second compound 0.0316 µM, first compound 3.16 µM
[45] = second compound 0.0316 µM, first compound 10 µM
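Note: spheroids exposed to agents for 7 days before readout.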

Compound: O=C(c1cc(Cc2n[nH]c(=O)c3ccccc23)ccc1F)N1CCN(C(=O)C2CC2)CC1 + COc1cc2nc(C)nc(NC(C)c3cc(N)cc(C(F)(F)F)c3)c2cc1OC1CCOC1
- IC50 [1]: > 10 µM
- IC50 [2]: > 10 µM
- IC50 [3]: > 10 µM
- IC50 [4]: > 10 µM
- IC50 [5]: > 10 µM
- viability, T/C [6]: 129%
- viability, T/C [7]: 122%
- viability, T/C [8]: 110%
- viability, T/C [9]: 113%
- viability, T/C [10]: 98.2%
- viability, T/C [11]: 95%
- viability, T/C [12]: 113%
- viability, T/C [13]: 106%
- viability, T/C [14]: 104%
- viability, T/C [15]: 103%
- viability, T/C [16]: 98%
- viability, T/C [17]: 91.5%
- viability, T/C [18]: 129%
- viability, T/C [19]: 134%
- viability, T/C [20]: 132%
- viability, T/C [21]: 115%
- viability, T/C [22]: 111%
- viability, T/C [23]: 91.4%
- viability, T/C [24]: 91.4%
- viability, T/C [25]: 102%
- viability, T/C [26]: 94.8%
- viability, T/C [27]: 95.2%
- viability, T/C [28]: 91.9%
- viability, T/C [29]: 81.7%
- viability, T/C [30]: 97%
- viability, T/C [31]: 102%
- viability, T/C [32]: 98.4%
- viability, T/C [33]: 92.5%
- viability, T/C [34]: 107%
- viability, T/C (second compound 10 µM, first compound 10 µM): 93.3%

Compound: O=C(c1cc(Cc2n[nH]c(=O)c3ccccc23)ccc1F)N1CCN(C(=O)C2CC2)CC1
- viability, T/C (compound 0.0316 µM): 104% [middle of 5 runs]
- viability, T/C (compound 0.1 µM): 106% [middle of 5 runs]
- viability, T/C (compound 0.316 µM): 105% [middle of 5 runs]
- viability, T/C (compound 1 µM): 106% [middle of 5 runs]
- viability, T/C (compound 3.16 µM): 101% [middle of 5 runs]
- viability, T/C (compound 10 µM): 82.5% [middle of 5 runs]
- IC50 (curve of compound): > 10 µM

Compound: CCNC(=O)CC1N=C(c2ccc(Cl)cc2)c2cc(OC)ccc2-n2c(C)nnc21 (centres undefined)
- viability, T/C (compound 0.0316 µM): 112% [middle of 5 runs]
- viability, T/C (compound 0.1 µM): 102% [middle of 5 runs]
- viability, T/C (compound 0.316 µM): 78.4% [middle of 5 runs]
- viability, T/C (compound 1 µM): 66.7% [middle of 5 runs]
- viability, T/C (compound 3.16 µM): 59.7% [middle of 5 runs]
- viability, T/C (compound 10 µM): 51.8% [middle of 5 runs]
- IC50 (curve of compound): > 10 µM and 8.28 µM

Compound: CC(=O)OC12COC1CC(O)C1(C)C(=O)C(O)C3=C(C)C(OC(=O)C(O)C(NC(=O)OC(C)(C)C)c4ccccc4)CC(O)(C(OC(=O)c4ccccc4)C21)C3(C)C (centres undefined) + CNCc1ccccc1-c1csc(C(C)Nc2nc(C)nc3cc(OC)c(OC)cc23)c1
- IC50 [1]: > 3.16 µM
- IC50 [2]: > 3.16 µM
- IC50 [3]: > 3.16 µM
- IC50 [4]: < 0.01 µM
- IC50 [5]: < 0.01 µM
- viability, T/C [35]: 81.2%
- viability, T/C [6]: 93.5%
- viability, T/C [7]: 97%
- viability, T/C [8]: 96.9%
- viability, T/C [9]: 105%
- viability, T/C [10]: 104%
- viability, T/C [36]: 85.6%
- viability, T/C [12]: 92.2%
- viability, T/C [13]: 96.2%
- viability, T/C [14]: 98.9%
- viability, T/C [15]: 101%
- viability, T/C [16]: 100%
- viability, T/C [37]: 84.6%
- viability, T/C [18]: 97.9%
- viability, T/C [19]: 104%
- viability, T/C [20]: 101%
- viability, T/C [21]: 103%
- viability, T/C [22]: 105%
- viability, T/C [38]: 0.36%
- viability, T/C [24]: 93.9%
- viability, T/C [25]: 1.4%
- viability, T/C [26]: 0.54%
- viability, T/C [27]: 13%
- viability, T/C [28]: 110%
- viability, T/C (second compound 10 µM, first compound 0.01 µM): 0.32%
- viability, T/C [30]: 0.17%
- viability, T/C [31]: 0.21%
- viability, T/C [32]: 0.2%
- viability, T/C [33]: 0.22%
- viability, T/C [34]: 0.28%

Compound: CN(C)C/C=C/C(=O)Nc1cc2c(Nc3ccc(F)c(Cl)c3)ncnc2cc1O[C@H]1CCOC1 + C=CC(=O)N1CCN(c2nc(OCC3CCCN3C)nc3c2CCN(c2cccc4cccc(C)c24)C3)CC1CC#N
- IC50 [39]: > 0.1 µM
- IC50 [1]: > 0.1 µM
- IC50 [2]: > 0.1 µM
- IC50 [3]: > 0.1 µM
- IC50 [4]: 0.00157 µM
- viability, T/C (second compound 0.0316 µM, first compound 0.000316 µM): 116%
- viability, T/C (second compound 0.0316 µM, first compound 0.001 µM): 112%
- viability, T/C (second compound 0.0316 µM, first compound 0.00316 µM): 98.5%
- viability, T/C (second compound 0.0316 µM, first compound 0.01 µM): 94.5%
- viability, T/C [40]: 89.1%
- viability, T/C [41]: 80.3%
- viability, T/C (second compound 0.1 µM, first compound 0.000316 µM): 109%
- viability, T/C (second compound 0.1 µM, first compound 0.001 µM): 101%
- viability, T/C (second compound 0.1 µM, first compound 0.00316 µM): 96.5%
- viability, T/C [35]: 83.1%
- viability, T/C [6]: 77.4%
- viability, T/C [7]: 72%
- viability, T/C (second compound 0.316 µM, first compound 0.000316 µM): 105%
- viability, T/C (second compound 0.316 µM, first compound 0.001 µM): 106%
- viability, T/C (second compound 0.316 µM, first compound 0.00316 µM): 92.4%
- viability, T/C [36]: 84.1%
- viability, T/C [12]: 72%
- viability, T/C [13]: 65.7%
- viability, T/C (second compound 1 µM, first compound 0.000316 µM): 95%
- viability, T/C (second compound 1 µM, first compound 0.001 µM): 100%
- viability, T/C (second compound 1 µM, first compound 0.00316 µM): 86.8%
- viability, T/C [37]: 78.4%
- viability, T/C [18]: 68.7%
- viability, T/C [19]: 63.9%
- viability, T/C (second compound 3.16 µM, first compound 0.000316 µM): 61.5%
- viability, T/C (second compound 3.16 µM, first compound 0.001 µM): 55.9%
- viability, T/C (second compound 3.16 µM, first compound 0.00316 µM): 40.8%
- viability, T/C [38]: 37.7%
- viability, T/C [24]: 36.4%
- viability, T/C [25]: 37.7%

Compound: O=C(c1cc(Cc2n[nH]c(=O)c3ccccc23)ccc1F)N1CCN(C(=O)C2CC2)CC1 + C=CC(=O)N1CCN(c2nc(OCC3CCCN3C)nc3c2CCN(c2cccc4cccc(C)c24)C3)CC1CC#N
- IC50 [39]: > 10 µM
- IC50 [1]: > 10 µM
- IC50 [2]: > 10 µM
- IC50 [3]: > 10 µM
- IC50 [4]: 4.94 µM
- viability, T/C [40]: 127%
- viability, T/C [41]: 120%
- viability, T/C [42]: 119%
- viability, T/C [43]: 119%
- viability, T/C [44]: 112%
- viability, T/C [45]: 96.7%
- viability, T/C [6]: 122%
- viability, T/C [7]: 118%
- viability, T/C [8]: 117%
- viability, T/C [9]: 109%
- viability, T/C [10]: 104%
- viability, T/C [11]: 93%
- viability, T/C [12]: 111%
- viability, T/C [13]: 115%
- viability, T/C [14]: 113%
- viability, T/C [15]: 108%
- viability, T/C [16]: 99%
- viability, T/C [17]: 101%
- viability, T/C [18]: 112%
- viability, T/C [19]: 116%
- viability, T/C [20]: 106%
- viability, T/C [21]: 108%
- viability, T/C [22]: 108%
- viability, T/C [23]: 89%
- viability, T/C [24]: 66.9%
- viability, T/C [25]: 65%
- viability, T/C [26]: 60.5%
- viability, T/C [27]: 58%
- viability, T/C [28]: 58.3%
- viability, T/C [29]: 40.8%

Compound: CC(C)NCC(C(=O)N1CCN(c2ncnc3c2C(C)CC3O)CC1)c1ccc(Cl)cc1 (centres undefined) + C=CC(=O)N1CCN(c2nc(OCC3CCCN3C)nc3c2CCN(c2cccc4cccc(C)c24)C3)CC1CC#N
- IC50 [39]: > 10 µM
- IC50 [1]: > 10 µM
- IC50 [2]: > 10 µM
- IC50 [3]: > 10 µM
- IC50 [4]: 0.0436 µM
- viability, T/C [40]: 84.5%
- viability, T/C [41]: 83.1%
- viability, T/C [42]: 81.1%
- viability, T/C [43]: 75.4%
- viability, T/C [44]: 75.6%
- viability, T/C [45]: 62.5%
- viability, T/C [6]: 90.8%
- viability, T/C [7]: 79.2%
- viability, T/C [8]: 69.9%
- viability, T/C [9]: 65.9%
- viability, T/C [10]: 79%
- viability, T/C [11]: 56.9%
- viability, T/C [12]: 89.3%
- viability, T/C [13]: 74.3%
- viability, T/C [14]: 67.9%
- viability, T/C [15]: 68.9%
- viability, T/C [16]: 69.8%
- viability, T/C [17]: 57.2%
- viability, T/C [18]: 83.5%
- viability, T/C [19]: 72.5%
- viability, T/C [20]: 61.5%
- viability, T/C [21]: 58.7%
- viability, T/C [22]: 61.4%
- viability, T/C [23]: 48.3%
- viability, T/C [24]: 55.9%
- viability, T/C [25]: 37%
- viability, T/C [26]: 33.8%
- viability, T/C [27]: 26.8%
- viability, T/C [28]: 16.4%
- viability, T/C [29]: 6.38%
